# Measured values taken from patent US10308644B2, “Heterocyclic compounds as immunomodulators” (Incyte Corporation, priority 2016, dated 2019).
# Biological target: PD-1/PD-L1 (Homo sapiens (Human), UniProt Q9NZQ7)
# Experiment: PD-1/PD-L1 Homogeneous Time-Resolved Fluorescence (HTRF) Binding Assay
# Conditions: recombinant human PD-1 (3 nM) and PD-L1 (10 nM), 25° C., PBS pH 7.4
# Method: Example A. PD-1/PD-L1 Homogeneous Time-Resolved Fluorescence (HTRF) Binding Assay
# The assays were conducted in a standard black 384-well polystyrene plate with a final volume of 20 μL. Inhibitors were first serially diluted in DMSO and then added to the plate wells before the addition of other reaction components. The final concentration of DMSO in the assay was 1%. The assays were carried out at 25° C. in the PBS buffer (pH 7.4) with 0.05% Tween-20 and 0.1% BSA. Recombinant human PD-L1 protein (19-238) with a His-tag at the C-terminus was purchased from AcroBiosystems (PD1-H5229). Recombinant human PD-1 protein (25-167) with Fc tag at the C-terminus was also purchased from AcroBiosystems (PD1-H5257). PD-L1 and PD-1 proteins were diluted in the assay buffer and 10 μL was added to the plate well. Plates were centrifuged and proteins were preincubated with inhibitors for 40 minutes. The incubation was followed by the addition of 10 μL of HTRF detection buffer supplemented with Europium cryptate-labeled anti-human IgG (PerkinElmer-AD0212) specific for Fc and anti-His antibody conjugated to SureLight®-Allophycocyanin (APC, PerkinElmer-AD0059H). After centrifugation, the plate was incubated at 25° C. for 60 min. before reading on a PHERAstar FS plate reader (665 nm/620 nm ratio). Final concentrations in the assay were—3 nM PD1, 10 nM PD-L1, 1 nM europium anti-human IgG and 20 nM anti-His-Allophycocyanin. IC50 determination was performed by fitting the curve of percent control activity versus the log of the inhibitor concentration using the GraphPad Prism 5.0 software.
# Sequence of PD-1/PD-L1 (Q9NZQ7 19-238): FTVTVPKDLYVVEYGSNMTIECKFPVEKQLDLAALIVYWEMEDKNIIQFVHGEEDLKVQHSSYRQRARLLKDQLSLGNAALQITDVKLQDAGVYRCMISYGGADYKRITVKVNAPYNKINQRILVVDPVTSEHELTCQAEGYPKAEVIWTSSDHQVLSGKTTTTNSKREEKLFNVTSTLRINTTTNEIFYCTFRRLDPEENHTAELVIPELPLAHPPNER
row,IC50,Structure (SMILES)
1,≤ 10 nM,"Cc1c(Nc2nccc3cc(C4CCCN4)cnc23)cccc1-c1cccc(-c2nc3cc(CN4CC[C@@H](C(=O)O)C4)cc(C#N)c3o2)c1C (single isomer, unassigned) [Example 98]"
2,≤ 10 nM,"Cc1c(Nc2nccc3cc(C4CCCN4)cnc23)cccc1-c1cccc(-c2nc3cc(CN4CC[C@@H](C(=O)O)C4)cc(C#N)c3o2)c1C (single isomer, unassigned) [Example 99]"
3,≤ 10 nM,"Cc1c(-c2nc3cc(CN4CC[C@@H](O)C4)cc(C#N)c3o2)cccc1-c1cccc(NC(=O)c2nc3c(n2C)CCN(CC2CCC(C)(C(=O)O)CC2)C3)c1Cl (single isomer, unassigned; peak 1) [Example 268]"
4,≤ 10 nM,"Cc1c(-c2nc3cc(CN4CC[C@@H](O)C4)cc(C#N)c3o2)cccc1-c1cccc(NC(=O)c2nc3c(n2C)CCN(CC2CCC(C)(C(=O)O)CC2)C3)c1Cl (single isomer, unassigned; peak 2) [Example 269]"
5,≤ 10 nM,"Cc1c(-c2nc3cc(CN4CCCC[C@H]4C(=O)O)cc(Cl)c3o2)cccc1-c1cccc(NC(=O)c2ccc(CNCCO)cn2)c1Cl [Example 1, (S)-1-((7-chloro-2-(2′-chloro-3′-(5-(((2-hydroxyethyl)amino)methyl)picolinamido)-2-methyl-[1,1′-biphenyl]-3-yl)benzo[d]oxazol-5-yl)methyl)piperidine-2-carboxylic acid]"
6,≤ 10 nM,"Cc1c(-c2nc3cc(CN4CCCC[C@H]4C(=O)O)cc(Cl)c3o2)cccc1-c1cccc(NC(=O)c2ccc(CN3CC[C@H](O)C3)cn2)c1Cl [Example 2, (S)-1-((7-chloro-2-(2′-chloro-3′-(5-(((S)-3-hydroxypyrrolidin-1-yl)methyl)picolinamido)-2-methyl-[1,1′-biphenyl]-3-yl)benzo[d]oxazol-5-yl)methyl)piperidine-2-carboxylic acid]"
7,≤ 10 nM,"Cc1c(Nc2nccc3cc(CNCCO)cnc23)cccc1-c1cccc(-c2nc3cc(CN4CCCC[C@H]4C(=O)O)cc(Cl)c3o2)c1C [Example 3, (S)-1-((7-chloro-2-(3′-((3-(((2-hydroxyethyl)amino)methyl)-1,7-naphthyridin-8-yl)amino)-2,2′-dimethyl-[1,1′-biphenyl]-3-yl)benzo[d]oxazol-5-yl)methyl)piperidine-2-carboxylic acid]"
8,≤ 10 nM,"Cc1c(Nc2nccc3cc(CNCC(C)(C)O)cnc23)cccc1-c1cccc(-c2nc3cc(CN4CCCC[C@H]4C(=O)O)cc(Cl)c3o2)c1C [Example 4, (S)-1-((7-chloro-2-(3′-((3-(((2-hydroxy-2-methylpropyl)amino)methyl)-1,7-naphthyridin-8-yl)amino)-2,2′-dimethyl-[1,1′-biphenyl]-3-yl)benzo[d]oxazol-5-yl)methyl)piperidine-2-carboxylic acid]"
9,≤ 10 nM,"Cc1c(Nc2nccc3cc(CN4CC[C@H](O)C4)cnc23)cccc1-c1cccc(-c2nc3cc(CN4CCCC[C@H]4C(=O)O)cc(Cl)c3o2)c1C [Example 5, (S)-1-((7-chloro-2-(3′-((3-(((S)-3-hydroxypyrrolidin-1-yl)methyl)-1,7-naphthyridin-8-yl)amino)-2,2′-dimethyl-[1,1′-biphenyl]-3-yl)benzo[d]oxazol-5-yl)methyl)piperidine-2-carboxylic acid]"
10,≤ 10 nM,"Cc1c(Nc2nccc3cc(CNCCO)cnc23)cccc1-c1cccc(-c2nc3cc(CNCCC(=O)O)cc(Cl)c3o2)c1C [Example 6, 3-(((7-chloro-2-(3′-((3-(((2-hydroxyethyl)amino)methyl)-1,7-naphthyridin-8-yl)amino)-2,2′-dimethyl-[1,1′-biphenyl]-3-yl)benzo[d]oxazol-5-yl)methyl)amino)propanoic acid]"
11,≤ 10 nM,"Cc1c(-c2nc3cc(CN4CCCC[C@H]4C(=O)O)c(OCC#N)cc3o2)cccc1-c1cccc(-c2nc3cc(CN4CCCC[C@H]4C(=O)O)c(OCC#N)cc3o2)c1C [Example 7, (2S,2′S)-1,1′-(((2,2′-dimethyl-[1,1′-biphenyl]-3,3′-diyl)bis(6-(cyanomethoxy)benzo[d]oxazole-2,5-diyl))bis(methylene))bis(piperidine-2-carboxylic acid)]"
12,≤ 10 nM,"Cc1c(-c2nc3cc(CN4CCCC[C@H]4C(=O)O)cc(Cl)c3o2)cccc1-c1cccc(NC(=O)c2nc3c(s2)CN(C)CC3)c1Cl [Example 8, (S)-1-((7-chloro-2-(2′-chloro-2-methyl-3′-(5-methyl-4,5,6,7-tetrahydrothiazolo[5,4-c]pyridine-2-carboxamido)-[1,1′-biphenyl]-3-yl)benzo[d]oxazol-5-yl)methyl)piperidine-2-carboxylic acid]"
13,≤ 10 nM,"Cc1c(-c2nc3cc(CNCCO)cc(Cl)c3o2)cccc1-c1cccc(NC(=O)c2nc3c(s2)CN(C)CC3)c1Cl [Example 9, N-(2-chloro-3′-(7-chloro-5-(((2-hydroxyethyl)amino)methyl)benzo[d]oxazol-2-yl)-2′-methyl-[1,1′-biphenyl]-3-yl)-5-methyl-4,5,6,7-tetrahydrothiazolo[5,4-c]pyridine-2-carboxamide]"
14,≤ 10 nM,"Cc1c(-c2nc3cc(CN4CC[C@H](O)C4)cc(Cl)c3o2)cccc1-c1cccc(-c2nc3cc(CN4CC[C@H](C(=O)O)C4)cc(Cl)c3o2)c1C [Example 10, (S)-1-((7-chloro-2-(3′-(7-chloro-5-(((S)-3-hydroxypyrrolidin-1-yl)methyl)benzo[d]oxazol-2-yl)-2,2′-dimethylbiphenyl-3-yl)benzo[d]oxazol-5-yl)methyl)pyrrolidine-3-carboxylic acid]"
15,≤ 10 nM,"Cc1c(Nc2nccc3nccnc23)cccc1-c1cccc(-c2nc3cc(CN4CC[C@@H](C(=O)O)C4)cc(Cl)c3o2)c1C [Example 11, (R)-1-((7-chloro-2-(2,2′-dimethyl-3′-(pyrido[4,3-b]pyrazin-5-ylamino)biphenyl-3-yl)benzo[d]oxazol-5-yl)methyl)pyrrolidine-3-carboxylic acid]"
16,≤ 10 nM,"Cc1c(Nc2nccc3nccnc23)cccc1-c1cccc(-c2nc3cc(CN4CC[C@@H](C(=O)O)C4)cc(C#N)c3o2)c1C [Example 12, (R)-1-((7-cyano-2-(2,2′-dimethyl-3′-(pyrido[4,3-b]pyrazin-5-ylamino)biphenyl-3-yl)benzo[d]oxazol-5-yl)methyl)pyrrolidine-3-carboxylic acid]"
17,≤ 10 nM,"Cc1c(Nc2ncnc3cccnc23)cccc1-c1cccc(-c2nc3cc(CN4CC[C@@H](C(=O)O)C4)cc(C#N)c3o2)c1C [Example 13, (R)-1-((7-cyano-2-(2,2′-dimethyl-3′-(pyrido[3,2-d]pyrimidin-4-ylamino)biphenyl-3-yl)benzo[d]oxazol-5-yl)methyl)pyrrolidine-3-carboxylic acid]"
18,≤ 10 nM,"Cc1c(-c2nc3cc(CN4CC[C@@H](C(=O)O)C4)cc(C#N)c3o2)cccc1-c1cccc(Nc2nccc3nccnc23)c1Cl [Example 14, (R)-1-((2-(2′-chloro-2-methyl-3′-(pyrido[4,3-b]pyrazin-5-ylamino)biphenyl-3-yl)-7-cyanobenzo[d]oxazol-5-yl)methyl)pyrrolidine-3-carboxylic acid]"
19,≤ 10 nM,"Cc1c(-c2nc3cc(CN4CC[C@@H](C(=O)O)C4)cc(C#N)c3o2)cccc1-c1cccc(Nc2cncc3nccnc23)c1Cl [Example 15, (R)-1-((2-(2′-chloro-2-methyl-3′-(pyrido[3,4-b]pyrazin-8-ylamino)biphenyl-3-yl)-7-cyanobenzo[d]oxazol-5-yl)methyl)pyrrolidine-3-carboxylic acid]"
20,≤ 10 nM,"Cc1c(Nc2nccc3cc(CN4CC[C@H](O)C4)cnc23)cccc1-c1cccc(-c2nc3cc(CN4CC[C@@H](C(=O)O)C4)cc(Cl)c3o2)c1C [Example 16, (R)-1-((7-chloro-2-(3′-(3-(((S)-3-hydroxypyrrolidin-1-yl)methyl)-1,7-naphthyridin-8-ylamino)-2,2′-dimethylbiphenyl-3-yl)benzo[d]oxazol-5-yl)methyl)pyrrolidine-3-carboxylic acid]"
21,≤ 10 nM,"Cc1c(Nc2nccc3cc(CN4CC[C@H](O)C4)cnc23)cccc1-c1cccc(-c2nc3cc(CN4CC[C@H](C(=O)O)C4)cc(Cl)c3o2)c1C [Example 17, (S)-1-((7-chloro-2-(3′-(3-(((S)-3-hydroxypyrrolidin-1-yl)methyl)-1,7-naphthyridin-8-ylamino)-2,2′-dimethylbiphenyl-3-yl)benzo[d]oxazol-5-yl)methyl)pyrrolidine-3-carboxylic acid]"
22,≤ 10 nM,"Cc1c(Nc2nccc3cc(CN4CC[C@@H](O)C4)cnc23)cccc1-c1cccc(-c2nc3cc(CN4CC[C@@H](C(=O)O)C4)cc(Cl)c3o2)c1C [Example 18, (R)-1-((7-chloro-2-(3′-(3-(((R)-3-hydroxypyrrolidin-1-yl)methyl)-1,7-naphthyridin-8-ylamino)-2,2′-dimethylbiphenyl-3-yl)benzo[d]oxazol-5-yl)methyl)pyrrolidine-3-carboxylic acid]"
23,≤ 10 nM,"Cc1c(Nc2nccc3cc(CN4CC[C@@H](O)C4)cnc23)cccc1-c1cccc(-c2nc3cc(CN4CC[C@H](C(=O)O)C4)cc(Cl)c3o2)c1C [Example 19, (S)-1-((7-chloro-2-(3′-(3-(((R)-3-hydroxypyrrolidin-1-yl)methyl)-1,7-naphthyridin-8-ylamino)-2,2′-dimethylbiphenyl-3-yl)benzo[d]oxazol-5-yl)methyl)pyrrolidine-3-carboxylic acid]"
